Experimental data as given in patent publication US11987586B1 (TAKEDA PHARMACEUTICAL COMPANY LIMITED, priority 2022, dated 2024).

Target: T1, human OX2 receptor (Homo sapiens, UniProt O43614)
T1 construct: expressed in transfected cells
T1 sequence (O43614 1-444): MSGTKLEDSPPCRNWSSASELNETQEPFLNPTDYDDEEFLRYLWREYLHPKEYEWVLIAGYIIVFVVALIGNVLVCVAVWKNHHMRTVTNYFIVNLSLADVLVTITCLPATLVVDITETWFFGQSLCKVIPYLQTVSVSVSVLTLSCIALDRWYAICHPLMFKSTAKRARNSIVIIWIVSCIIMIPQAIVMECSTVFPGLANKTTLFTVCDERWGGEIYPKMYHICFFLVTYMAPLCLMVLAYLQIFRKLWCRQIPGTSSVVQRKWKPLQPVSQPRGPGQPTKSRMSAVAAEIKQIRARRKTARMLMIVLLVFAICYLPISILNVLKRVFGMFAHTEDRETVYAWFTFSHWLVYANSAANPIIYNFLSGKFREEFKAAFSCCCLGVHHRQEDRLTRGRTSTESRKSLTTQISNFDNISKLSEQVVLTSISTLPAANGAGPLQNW
Assay: Measurement of orexin type 2 receptor agonist activity (calcium fluorescence, Fluo-4, FDSS)
Type: cell-based
Settings: 3 uM test compound; CHO cells expressing human OX2 receptor; DMSO = 0%, 10 nM orexin A (human) = 100%
Procedure, shortened: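 CHO-K1 cells stably expressing human OX2 receptor (residues 1-444) were loaded with Fluo-4 AM plus probenecid. Calcium fluorescence after compound addition was recorded for 1 min 40 s. Activity (%) was scaled between DMSO (0%) and 10 nM orexin A final (100%).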

Compound | OX2R agonist activity (3 uM, %) [%]
O=C1N(c2noc3cc(F)c(F)c(-c4c(F)cc(F)cc4F)c23)CC[C@H]2N1C[C@@H](NS(=O)(=O)CF)C2(F)F [Example 297, N-{(4aR,6R)-2-[5,6-difluoro-4-(2,4,6-trifluorophenyl)-1,2-benzoxazol-3-yl]-5,5-difluoro-1-oxooctahydropyrrolo[1,2-c]pyrimidin-6-yl}-1-fluoromethanesulfonamide] | 107
O=C1N(c2noc3cc(F)cc(-c4c(F)cccc4F)c23)CC[C@H]2N1C[C@@H](NS(=O)(=O)C1CC1)C2(F)F [Example 271, N-{(4aR,6R)-2-[4-(2,6-difluorophenyl)-6-fluoro-1,2-benzoxazol-3-yl]-5,5-difluoro-1-oxooctahydropyrrolo[1,2-c]pyrimidin-6-yl}cyclopropanesulfonamide] | 107
CCS(=O)(=O)N[C@@H]1Cn2c(cn(-c3noc4cc(C(F)(F)F)cc(-c5c(F)cc(F)cc5F)c34)c2=O)C1(F)F [Example 157, N-{(6R)-7,7-difluoro-3-oxo-2-[6-(trifluoromethyl)-4-(2,4,6-trifluorophenyl)-1,2-benzoxazol-3-yl]-2,5,6,7-tetrahydro-3H-pyrrolo[1,2-c]imidazol-6-yl}ethanesulfonamide] | 96
COCc1cc2onc(N3CC[C@H]4N(C[C@@H](NS(C)(=O)=O)C4(F)F)C3=O)c2c(-c2c(F)cc(F)cc2F)c1F [Example 227, N-{(4aR,6R)-5,5-difluoro-2-[5-fluoro-6-(methoxymethyl)-4-(2,4,6-trifluorophenyl)-1,2-benzoxazol-3-yl]-1-oxooctahydropyrrolo[1,2-c]pyrimidin-6-yl}methanesulfonamide] | 98
Cc1cc2onc(-n3cc4n(c3=O)C[C@@H](NS(C)(=O)=O)C4(F)F)c2c(-c2c(F)cc(F)cc2F)n1 [Example 229, N-{(6R)-7,7-difluoro-2-[6-methyl-4-(2,4,6-trifluorophenyl)[1,2]oxazolo[4,5-c]pyridin-3-yl]-3-oxo-2,5,6,7-tetrahydro-3H-pyrrolo[1,2-c]imidazol-6-yl}methanesulfonamide] | 113
CCS(=O)(=O)N[C@@H]1CN2C(=O)N(c3noc4ccc(F)c(-c5c(F)cccc5F)c34)CC[C@@H]2C1(F)F [Example 269, N-{(4aR,6R)-2-[4-(2,6-difluorophenyl)-5-fluoro-1,2-benzoxazol-3-yl]-5,5-difluoro-1-oxooctahydropyrrolo[1,2-c]pyrimidin-6-yl}ethanesulfonamide] | 104
Cc1cc2onc(N3CC[C@H]4N(C[C@@H](NS(=O)(=O)C5CC5)C4(F)F)C3=O)c2c(-c2c(F)cc(F)cc2F)n1 [Example 233, N-{(4aR,6R)-5,5-difluoro-2-[6-methyl-4-(2,4,6-trifluorophenyl)[1,2]oxazolo[4,5-c]pyridin-3-yl]-1-oxooctahydropyrrolo[1,2-c]pyrimidin-6-yl}cyclopropanesulfonamide] | 109
CCS(=O)(=O)N[C@@H]1CN2C(=O)N(c3noc4cccc(-c5c(F)cccc5F)c34)C[C@@H]2C1(F)F [Example 33, N-{(6R,7aR)-2-[4-(2,6-Difluorophenyl)-1,2-benzoxazol-3-yl]-7,7-difluoro-3-oxohexahydro-1H-pyrrolo[1,2-c]imidazol-6-yl}ethanesulfonamide] | 108
CCS(=O)(=O)N[C@@H]1CN2C(=O)N(c3noc4cc(F)cc(-c5c(F)cc(F)cc5F)c34)CC[C@@H]2C1(F)F [Example 261] | 105
CCS(=O)(=O)N[C@H]1Cc2cn(-c3noc4cc(C(F)(F)F)cc(-c5c(F)cccc5F)c34)c(=O)n2C1 [Example 84, N-{(6S)-2-[4-(2,6-difluorophenyl)-6-(trifluoromethyl)-1,2-benzoxazol-3-yl]-3-oxo-2,5,6,7-tetrahydro-3H-pyrrolo[1,2-c]imidazol-6-yl}ethanesulfonamide] | 92
CCS(=O)(=O)N[C@H]1C[C@H]2CN(c3noc4cccc(-c5sccc5C)c34)C(=O)N2C1 [Example 83, N-{(6S,7aS)-2-[4-(3-methylthiophen-2-yl)-1,2-benzoxazol-3-yl]-3-oxohexahydro-1H-pyrrolo[1,2-c]imidazol-6-yl}ethanesulfonamide] | 84
CS(=O)(=O)N[C@@H]1C[C@H]2CN(c3noc4cccc(-c5c(F)cccc5F)c34)C(=O)[C@H]2C1 (relative stereo) [Example 337, rel-N-{(3aR,5R,6aS)-2-[4-(2,6-difluorophenyl)-1,2-benzoxazol-3-yl]-1-oxooctahydrocyclopenta[c]pyrrol-5-yl}methanesulfonamide] | 79
CCS(=O)(=O)N[C@@H]1CN2C(=O)N(c3noc4cccc(C5CCC5)c34)CC[C@@H]2C1(F)F [Example 331, N-[(4aR,6R)-2-(4-cyclobutyl-1,2-benzoxazol-3-yl)-5,5-difluoro-1-oxooctahydropyrrolo[1,2-c]pyrimidin-6-yl]ethanesulfonamide] | 45
CCS(=O)(=O)N[C@@H]1CN2C(=O)N(c3noc4cc(COC)c(F)c(-c5c(F)cccc5F)c34)CC[C@@H]2C1(F)F [Example 221, N-{(4aR,6R)-2-[4-(2,6-difluorophenyl)-5-fluoro-6-(methoxymethyl)-1,2-benzoxazol-3-yl]-5,5-difluoro-1-oxooctahydropyrrolo[1,2-c]pyrimidin-6-yl}ethanesulfonamide] | 104
CS(=O)(=O)N[C@@H]1CN2C(=O)N(c3noc4cc(F)c(F)c(-c5c(F)cccc5F)c34)CC[C@@H]2C1(F)F [Example 252, N-{(4aR,6R)-2-[4-(2,6-difluorophenyl)-5,6-difluoro-1,2-benzoxazol-3-yl]-5,5-difluoro-1-oxooctahydropyrrolo[1,2-c]pyrimidin-6-yl}methanesulfonamide] | 96
CCS(=O)(=O)N[C@@H]1Cn2c(cn(-c3noc4ccc(F)c(-c5c(F)cc(F)cc5F)c34)c2=O)C1(F)F [Example 92, N-{(6R)-7,7-Difluoro-2-[5-fluoro-4-(2,4,6-trifluorophenyl)-1,2-benzoxazol-3-yl]-3-oxo-2,5,6,7-tetrahydro-3H-pyrrolo[1,2-c]imidazol-6-yl}ethanesulfonamide] | 98
CCS(=O)(=O)N[C@@H]1Cn2c(cn(-c3noc4cc(Cl)c(F)c(-c5c(F)cccc5F)c34)c2=O)C1(F)F [Example 78, N-{(6R)-2-[6-chloro-4-(2,6-difluorophenyl)-5-fluoro-1,2-benzoxazol-3-yl]-7,7-difluoro-3-oxo-2,5,6,7-tetrahydro-3H-pyrrolo[1,2-c]imidazol-6-yl}ethanesulfonamide] | 104
CS(=O)(=O)N[C@@H]1CN2C(=O)N(c3noc4cccc(-c5cc(F)ccc5F)c34)CC[C@@H]2C1(F)F [Example 292, N-{(4aR,6R)-2-[4-(2,5-difluorophenyl)-1,2-benzoxazol-3-yl]-5,5-difluoro-1-oxooctahydropyrrolo[1,2-c]pyrimidin-6-yl}methanesulfonamide] | 106
COCc1cc(-c2c(F)cc(F)cc2F)c2c(N3CC[C@H]4N(C[C@@H](NS(C)(=O)=O)C4(F)F)C3=O)noc2c1 [Example 210, N-{(4aR,6R)-5,5-difluoro-2-[6-(methoxymethyl)-4-(2,4,6-trifluorophenyl)-1,2-benzoxazol-3-yl]-1-oxooctahydropyrrolo[1,2-c]pyrimidin-6-yl}methanesulfonamide] | 94
CS(=O)(=O)N[C@@H]1CN2C(=O)N(c3noc4cccc(-c5cccc(F)c5F)c34)CC[C@@H]2C1(F)F [Example 276, N-{(4aR,6R)-2-[4-(2,3-difluorophenyl)-1,2-benzoxazol-3-yl]-5,5-difluoro-1-oxooctahydropyrrolo[1,2-c]pyrimidin-6-yl}methanesulfonamide] | 100
CCS(=O)(=O)N[C@@H]1CN2C(=O)N(c3noc4cccc(-c5ccsc5)c34)CC[C@@H]2C1(F)F [Example 326, N-{(4aR,6R)-5,5-difluoro-1-oxo-2-[4-(thiophen-3-yl)-1,2-benzoxazol-3-yl]octahydropyrrolo[1,2-c]pyrimidin-6-yl}ethanesulfonamide] | 99
O=C1N(c2noc3cc(F)c(F)c(-c4c(F)cccc4F)c23)CC[C@H]2N1C[C@@H](NS(=O)(=O)C1CC1)C2(F)F [Example 312, N-{(4aR,6R)-2-[4-(2,6-difluorophenyl)-5,6-difluoro-1,2-benzoxazol-3-yl]-5,5-difluoro-1-oxooctahydropyrrolo[1,2-c]pyrimidin-6-yl}cyclopropanesulfonamide] | 100
CCS(=O)(=O)N[C@H]1Cn2c(cn(-c3noc4cccc(-c5c(F)cccc5F)c34)c2=O)[C@@H]1C (relative stereo) [Example 131, rel-N-{(6R, 7R)-2-[4-(2,6-difluorophenyl)-1,2-benzoxazol-3-yl]-7-methyl-3-oxo-2,5,6,7-tetrahydro-3H-pyrrolo[1,2-c]imidazol-6-yl}ethanesulfonamide] | 96
CS(=O)(=O)N[C@@H]1CN2C(=O)N(c3noc4cc(C(F)F)cc(-c5c(F)cc(F)cc5F)c34)C[C@@H]2C1(F)F [Example 274, N-{(6R,7aR)-2-[6-(difluoromethyl)-4-(2,4,6-trifluorophenyl)-1,2-benzoxazol-3-yl]-7,7-difluoro-3-oxohexahydro-1H-pyrrolo[1,2-c]imidazol-6-yl}methanesulfonamide] | 102
